Where a name gives a salt, the structure may show the parent alone. Calls of active or inactive are those of the source.
Columns and labels:
[1] = A cytotoxicity screen of small molecule inhibitors of the PhoP region in Salmonella typhi identified in the primary screen. [Related pubchem assays: 1850, 1864, 1985 ]; type: functional
[2] = luciferase reporter signal suppression in cells – H4 neuroglioma cells, luminescence, dose response (AID 1990); type: functional, cell-based
[3] = Luminescence Cell-Based Dose Response HTS to Identify Inhibitors of 5'UTR Stem-Loop Driven Prion Protein mRNA Translation in H4 Neuroglioblastoma Cells. [Related pubchem assays: 1827 (Project Summary), 1813 (Primary HTS)]; type: functional
[4] = alpha-synuclein stem-loop luciferase translation blockers – H4 neuroglioma cells, luminescence, confirmation (AID 1988); type: functional, cell-based
[5] = target: FAD-linked sulfhydryl oxidase ALR (Homo sapiens, UniProt P55789); assay: ALR-catalysed DTT oxidation blockers – biochemical, H2O2 detection, luminescence, cherry-pick, dose response (AID 493248)
[6] = target: T1, Rac GTPase-activating protein 1 (Homo sapiens, UniProt Q9H0H5); assay: blockers of MgcRacGAP-driven Rac1 GTP hydrolysis – biochemical, ADP Hunter fluorescence, primary and confirmatory, confirmation (AID 624330); type: functional
T1 sequence (Q9H0H5 whole entry): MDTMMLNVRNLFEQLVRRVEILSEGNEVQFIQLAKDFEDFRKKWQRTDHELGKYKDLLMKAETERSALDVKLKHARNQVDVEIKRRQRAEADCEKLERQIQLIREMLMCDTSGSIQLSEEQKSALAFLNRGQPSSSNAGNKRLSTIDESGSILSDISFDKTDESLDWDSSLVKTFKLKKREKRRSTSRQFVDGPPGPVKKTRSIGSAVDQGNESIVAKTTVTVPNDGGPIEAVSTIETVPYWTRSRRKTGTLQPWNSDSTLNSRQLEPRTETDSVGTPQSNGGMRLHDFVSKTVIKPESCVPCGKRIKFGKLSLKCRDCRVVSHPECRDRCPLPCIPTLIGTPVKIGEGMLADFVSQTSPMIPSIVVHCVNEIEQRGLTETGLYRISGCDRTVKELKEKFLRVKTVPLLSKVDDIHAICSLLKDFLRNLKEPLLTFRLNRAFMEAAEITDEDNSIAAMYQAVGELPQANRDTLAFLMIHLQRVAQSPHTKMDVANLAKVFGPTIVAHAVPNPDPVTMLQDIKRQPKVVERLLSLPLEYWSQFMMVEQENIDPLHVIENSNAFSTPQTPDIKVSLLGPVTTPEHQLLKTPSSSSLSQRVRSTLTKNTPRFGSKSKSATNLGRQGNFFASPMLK

[7] = microbe, parasite or virus in culture; type: functional; details: Mycobacterium tuberculosis
[8] = THP-1 cell cytotoxicity, dose response, cytotoxicity control for non-replicating M. tuberculosis project (AID 489025); type: functional
cells = type: functional
[9] = target: Luciferin 4-monooxygenase (Photinus pyralis, UniProt P08659); assay: inhibition of purified Photinus pyralis luciferase – biochemical, luminescence, dose response (AID 1891)
[10] = Luminescence Cell-Based Dose Confirmation HTS to Identify Inhibitors of Platelet Dense Granule Release. [Related pubchem assays: 1663 (Primary HTS), 1678 (Summary of Project)]; type: functional
[11] = target: T2, Short transient receptor potential channel 4 (Mus musculus, UniProt Q9QUQ5); assay: block of DAMGO-driven TRPC4 calcium entry – cell-based, HEK293 TRPC4/mu-opioid, Fluo-4 calcium, dose response (AID 434942); type: functional;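 also: potency of inhibitors blocking the TRPC4 calcium response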
T2 sequence (Q9QUQ5 whole entry): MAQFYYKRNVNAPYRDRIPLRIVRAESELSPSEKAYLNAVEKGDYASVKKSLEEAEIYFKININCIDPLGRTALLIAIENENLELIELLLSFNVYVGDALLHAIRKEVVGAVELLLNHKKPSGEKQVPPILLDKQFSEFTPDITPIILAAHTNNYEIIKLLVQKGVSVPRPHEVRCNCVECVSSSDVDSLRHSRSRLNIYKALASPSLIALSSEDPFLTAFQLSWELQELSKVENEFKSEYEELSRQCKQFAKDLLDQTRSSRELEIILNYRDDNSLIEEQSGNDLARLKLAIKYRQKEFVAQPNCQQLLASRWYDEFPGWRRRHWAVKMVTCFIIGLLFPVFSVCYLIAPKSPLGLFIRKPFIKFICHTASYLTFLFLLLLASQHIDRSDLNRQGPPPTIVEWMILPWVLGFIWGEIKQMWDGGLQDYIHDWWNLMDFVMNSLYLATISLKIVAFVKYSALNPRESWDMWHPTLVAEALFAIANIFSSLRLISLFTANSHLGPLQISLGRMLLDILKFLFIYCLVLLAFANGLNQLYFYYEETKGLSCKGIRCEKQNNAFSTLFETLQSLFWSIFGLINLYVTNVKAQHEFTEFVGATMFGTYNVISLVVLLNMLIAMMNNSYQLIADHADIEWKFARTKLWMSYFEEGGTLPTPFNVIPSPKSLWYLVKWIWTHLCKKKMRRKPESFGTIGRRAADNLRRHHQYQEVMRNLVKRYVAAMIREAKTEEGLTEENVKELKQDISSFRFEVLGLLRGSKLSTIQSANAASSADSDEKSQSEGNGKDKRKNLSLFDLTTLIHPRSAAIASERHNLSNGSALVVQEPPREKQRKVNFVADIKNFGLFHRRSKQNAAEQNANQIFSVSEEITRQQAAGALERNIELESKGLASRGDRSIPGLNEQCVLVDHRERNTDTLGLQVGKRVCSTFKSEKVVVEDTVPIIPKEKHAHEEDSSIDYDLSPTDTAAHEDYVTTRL

[12] = Trypanosoma cruzi growth suppression in host cells – NIH3T3 host cells, beta-gal luminescence, confirmation (AID 2044); type: functional, cell-based;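 also: intracellular parasites grown in NIH/3T3 mouse fibroblasts as host cells; luminescent beta-galactosidase reporter signal from transgenic T. cruzi replicating inside host cells; inhibitors lower the luminescence signal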
[13] = NIH3T3 cell viability loss – ATP luminescence, mouse fibroblasts, counter-screen, dose response (AID 2010); type: functional, cell-based;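 also: cells exposed to compound for about 90 hours before reading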
[14] = viability of PTEN-deleted HCT116 cells – cell-based, HCT116 PTEN knockout, dose response (AID 1047); type: functional;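 also: HCT116 colon tumor cells with PTEN knocked out; cells exposed to compound for 60 hours before readout; potency for loss of cell viability measured by luminescence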
[15] = viability of HCT116 lacking mutant beta-catenin – cell-based, human colon tumor, dose response (AID 1045); type: functional;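 also: HCT116 colon tumor cells with beta catenin knocked out; cells exposed to compound for 60 hours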
[16] = target: T3, Polyadenylate-binding protein 1 (Homo sapiens, UniProt P11940); assay: MLLE binding blockers, Cy5 peptide tracer – biochemical, fluorescence polarization, Cy5-PAM2 peptide, secondary, miRNA deadenylation inhibitor project, dose response (AID 602260); type: functional; details: read-out: IC50_Mean
[17] = target: T3, Polyadenylate-binding protein 1; assay: MLLE domain peptide-binding blockers, IC50 – biochemical, fluorescence polarization, FITC-PAM2 peptide, dose response (AID 602259); type: functional; details: read-out: IC50_Mean
Caspase-6 = target: T4, Caspase-6 (Homo sapiens, UniProt P55212); assay: inhibition of CASP6 peptide cleavage – biochemical, VEID-R110 fluorescence, cherry-pick, dose response (AID 720632)
T4 sequence (P55212 whole entry): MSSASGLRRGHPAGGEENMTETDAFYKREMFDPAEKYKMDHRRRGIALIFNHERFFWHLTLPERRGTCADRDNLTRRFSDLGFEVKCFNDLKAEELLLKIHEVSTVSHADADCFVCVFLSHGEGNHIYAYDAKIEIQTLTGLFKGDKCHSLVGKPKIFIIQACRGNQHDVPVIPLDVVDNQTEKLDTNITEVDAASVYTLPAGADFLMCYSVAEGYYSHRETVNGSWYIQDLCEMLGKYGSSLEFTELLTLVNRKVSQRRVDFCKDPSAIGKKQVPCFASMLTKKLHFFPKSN

[18] = target: T5, DNA repair protein RAD52 homolog (Homo sapiens, UniProt P43351); type: functional, biochemical
T5 sequence (P43351 whole entry): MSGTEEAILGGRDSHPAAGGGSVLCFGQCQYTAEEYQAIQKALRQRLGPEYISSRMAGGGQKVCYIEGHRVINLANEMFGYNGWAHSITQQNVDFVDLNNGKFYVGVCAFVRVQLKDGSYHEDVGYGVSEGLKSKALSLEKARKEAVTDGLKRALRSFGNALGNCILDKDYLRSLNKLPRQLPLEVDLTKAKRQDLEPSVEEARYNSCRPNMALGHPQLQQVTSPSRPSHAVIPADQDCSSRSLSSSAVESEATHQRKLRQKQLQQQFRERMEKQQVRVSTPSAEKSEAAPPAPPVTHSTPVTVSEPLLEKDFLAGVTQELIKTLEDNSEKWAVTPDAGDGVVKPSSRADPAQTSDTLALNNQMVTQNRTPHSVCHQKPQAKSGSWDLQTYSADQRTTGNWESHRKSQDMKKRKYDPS

[19] = NIH-3T3 fibroblast cytotoxicity, dose response, cytotoxicity control, cell-based, fluorescence, Alamar Blue, secondary assay (AID 2327); type: functional;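 also: NIH-3T3 mouse fibroblasts cultured with fluconazole at 8 µg/mL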
[20] = fluconazole-exposed Candida albicans growth modulators – fluorescence, retest, confirmation (AID 2467); type: functional, cell-based

Chain of FAD-linked sulfhydryl oxidase ALR (P55789 whole entry): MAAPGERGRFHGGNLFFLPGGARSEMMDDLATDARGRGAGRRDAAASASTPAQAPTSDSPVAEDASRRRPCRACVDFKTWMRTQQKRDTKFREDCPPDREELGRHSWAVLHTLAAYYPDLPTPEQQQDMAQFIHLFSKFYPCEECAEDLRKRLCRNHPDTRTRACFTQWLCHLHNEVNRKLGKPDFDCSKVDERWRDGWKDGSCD
T3 sequence (P11940 whole entry, the tested form may be a part): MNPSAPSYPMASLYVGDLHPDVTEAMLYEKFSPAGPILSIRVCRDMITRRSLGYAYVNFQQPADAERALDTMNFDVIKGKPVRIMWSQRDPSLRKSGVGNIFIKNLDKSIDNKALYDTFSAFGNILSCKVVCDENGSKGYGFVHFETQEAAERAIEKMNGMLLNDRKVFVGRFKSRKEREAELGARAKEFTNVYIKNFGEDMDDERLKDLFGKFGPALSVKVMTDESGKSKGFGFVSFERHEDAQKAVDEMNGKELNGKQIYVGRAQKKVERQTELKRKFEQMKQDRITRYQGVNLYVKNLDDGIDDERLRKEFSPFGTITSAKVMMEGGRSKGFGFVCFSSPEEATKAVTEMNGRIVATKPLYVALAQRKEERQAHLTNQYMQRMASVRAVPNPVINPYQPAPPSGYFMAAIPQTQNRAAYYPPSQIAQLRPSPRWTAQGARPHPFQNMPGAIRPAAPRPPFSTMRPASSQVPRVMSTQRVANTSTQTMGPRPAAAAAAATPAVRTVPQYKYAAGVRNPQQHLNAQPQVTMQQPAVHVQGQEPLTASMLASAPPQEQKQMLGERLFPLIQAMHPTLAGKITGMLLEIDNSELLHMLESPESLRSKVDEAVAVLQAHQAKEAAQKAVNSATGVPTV
Chain of Luciferin 4-monooxygenase (P08659 whole entry): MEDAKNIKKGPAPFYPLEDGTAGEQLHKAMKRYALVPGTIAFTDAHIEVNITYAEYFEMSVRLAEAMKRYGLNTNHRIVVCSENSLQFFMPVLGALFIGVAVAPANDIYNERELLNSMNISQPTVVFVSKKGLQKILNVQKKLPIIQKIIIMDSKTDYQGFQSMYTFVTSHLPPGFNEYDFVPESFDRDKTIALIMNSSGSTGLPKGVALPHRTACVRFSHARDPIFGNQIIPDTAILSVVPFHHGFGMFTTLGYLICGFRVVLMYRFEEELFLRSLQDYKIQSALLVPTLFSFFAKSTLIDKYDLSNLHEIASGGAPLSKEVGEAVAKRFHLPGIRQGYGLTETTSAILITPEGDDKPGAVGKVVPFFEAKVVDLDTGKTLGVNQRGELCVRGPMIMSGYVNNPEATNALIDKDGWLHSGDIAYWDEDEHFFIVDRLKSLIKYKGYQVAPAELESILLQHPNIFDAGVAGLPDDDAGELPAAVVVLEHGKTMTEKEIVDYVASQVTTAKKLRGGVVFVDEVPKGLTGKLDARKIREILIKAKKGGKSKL

Compound: CCCC(c1nnnn1Cc1ccc(OC)cc1)N1CCN(c2ccccc2OC)CC1 (stereo not given)
- EC50 [1]: > 50 µM (active)

Compound: COc1ccc(OC)c(S(=O)(=O)N2CCC(C(=O)NCCc3ccc(OC)c(OC)c3)CC2)c1
- EC50 [1]: > 50 µM (active)

Compound: Cc1nc2ccc(-c3nc4cc(N)ccc4[nH]3)cc2[nH]1
- EC50 [2]: > 120 µM (not active)
- EC50 [3]: 16.6 µM (active)
- EC50 [4]: 38 µM (active)
- AC50 [5]: 0.736 µM (active)
- IC50 [6]: 54 µM (active)

Compound: Cc1cc(-c2c(C)[nH]n(-c3ccccc3)c2=O)[nH]n1
- CC50 [7]: 33 µM (active)
- CC50 [8]: > 40 µM (active)
- AC50 [5]: 5.41 µM (active)
- IC50 (cells): 5.35 µM (active)

Compound: O=C(/C=C/c1ccc(O)cc1)c1ccccc1 [4-HYDROXYCHALCONE]
- EC50 [1]: > 50 µM (active)
- EC50 [9]: < 0.088 µM (active)
- EC50 [10]: < 0.701 µM (active)

Compound: CCOc1c(Cl)cc(CNCC(O)c2ccccc2)cc1OC (stereo not given)
- EC50 [11]: 2.11 µM (active)

Compound: CCC(Sc1nc2cc[nH]cc-2n1)C(=O)Nc1ccc(C)c(Cl)c1 (stereo not given)
- EC50 [1]: > 50 µM (active)
- EC50 [12]: 2.06 µM (active)
- EC50 [13]: > 60 µM (not active)

Compound: NC(=O)SCC(=O)Nc1ccc(Cl)c(Cl)c1
- EC50 [1]: > 50 µM (active)
- EC50 [14]: 50.8 µM (active)
- EC50 [15]: 31 µM (active)
- IC50 [16]: > 66 µM (inactive)
- IC50 [17]: > 66 µM (inactive)

Compound: N#Cc1nc(-c2ccc(OCc3ccccc3)cc2)oc1NCCCn1ccnc1
- CC50 [7]: > 40 µM (active)
- CC50 [8]: 24.7 µM (active)
- IC50 (cells): 46.5 µM (active)

Compound: Oc1cnnc(Nc2ccc(Nc3ccccc3)cc2)n1
- AC50 [5]: 0.323 µM (active)

Compound: CC[C@@H](CO)NC(=O)[C@@H]1C=C2c3cccc4[nH]cc(c34)C[C@H]2N(C)C1 [METHYLERGONOVINE MALEATE]
- AC50 (Caspase-6): 7.04 µM (active)

Compound: O=C(Cc1ccccc1)N1CCN(Cc2cccc(Br)c2)CC1
- EC50 [11]: 13.3 µM (active)

Compound: COc1cc(C(=O)NCC(c2ccco2)N2CCc3ccccc32)cc(OC)c1OC (stereo not given)
- AC50 [5]: 5.5 µM (active)

Compound: CN(C)c1ccc(C(=S)N2CCNCC2)cc1
- AC50 [5]: 2.18 µM (active)

Compound: Cc1cccc(-n2nc(C)c3c(C(=O)O)cc(-c4cccs4)nc32)c1
- EC50 [11]: 2.99 µM (active)

Compound: CC(C)(C)Nc1nc(NC(C)(C)C)nc(-n2ccnc2)n1
- CC50 [8]: > 40 µM (active)
- IC50 (cells): 22.9 µM (active)

Compound: OCCN1CCN(CC(O)COc2ccc(C34CC5CC(CC(C5)C3)C4)cc2)CC1 (stereo not given)
- EC50 [2]: > 120 µM (not active)
- EC50 [3]: > 120 µM (not active)
- EC50 [4]: > 120 µM (not active)
- AC50 [18]: 16 µM (active)

Compound: NC(=O)C1C(=O)c2ccccc2C1(C[N+](=O)[O-])c1ccccc1 (stereo not given)
- AC50 (Caspase-6): 38.1 µM (active)

Compound: O=S(=O)(c1ccccc1)N1CCN(C/C=C/c2ccccc2)CC1
- EC50 [11]: 5.96 µM (active)

Compound: C[C@](N)(Cc1ccc(O)c(O)c1)C(=O)O [METHYLDOPA]
- AC50 (Caspase-6): 39.2 µM (active)

Compound: COc1cccc(C(=O)N2CCCC(Nc3ccc(C)c(C)c3)C2)c1 (stereo not given)
- AC50 [5]: 7.17 µM (active)

Compound: NNC(=O)CCc1nc2ccc(O)cc2[nH]1
- AC50 [5]: 3.82 µM (active)

Compound: COc1ccc(CN2CCN(C(=O)c3ccc(F)cc3)CC2)c(OC)c1
- EC50 [11]: 3.76 µM (active)

Compound: Cc1cc(N)ccc1NC(=O)CN1CCCC1
- AC50 [18]: 1.73 µM (active)

Compound: CC(=O)c1ccc(-[n+]2cc(-c3ccc(C(C)(C)C)cc3)n3c2SCCC3)cc1
- EC50 [19]: > 150 µM (inactive)
- EC50 [20]: 2.03 µM (active)
- EC50 [12]: 0.443 µM (active)
- CC50 [7]: > 40 µM (active)
- EC50 [13]: > 60 µM (not active)
- CC50 [8]: 11.4 µM (active)
- IC50 (cells): 20.9 µM (active)

Compound: Cn1c(N)c(N=O)c(=O)n(C)c1=S
- AC50 (Caspase-6): 6.37 µM (active)

Compound: Cc1ccc2c(c1)N(C(=O)CCC(=O)Nc1ccccc1Cl)CC(C)O2 (stereo not given)
- EC50 [11]: 1.5 µM (active)

Compound: CC12CCC(C(=O)N/N=C/c3ccc(O)cc3)(OC1=O)C2(C)C (stereo not given)
- AC50 [5]: 0.099 µM (active)
